Assay results taken from patent EP0830600B1, “FUNCTIONAL BIOASSAY FOR G-PROTEIN COUPLED RECEPTOR AGONISTS AND ANTAGONISTS” (Praecis Pharmaceuticals Incorporated, priority 1995, dated 1996).

Legend:
[1] = biological target: T1, human β2-adrenergic receptor (Homo sapiens, UniProt P07550); assay: Cell morphology (photomicroscopy) of β2-adrenergic receptor-expressing cell line; format: cell-based; conditions: several days
T1 construct: expressed in transfected cells
Description: Several days later, cells were analyzed by photomicroscopy to determine the effect of treatment on cell morphology. […] Assessment of the agonist or antagonist properties of individual compounds or libraries of compounds can be achieved by, for example, microscopic observation of the cells, or alternatively, by video digitizing techniques to quantify cell shape changes and/or cell alignment changes.

[2] = test system: untransfected CHO DUKX B 1 cells; assay: MTT cell viability, control untransfected CHO cells; format: cell-based, Chinese Hamster; conditions: carbachol or pirenzepine; 5 days; Figure 2A
untransfected CHO cells = assay: Cell morphology, control untransfected CHO cells; format: cell-based, Chinese Hamster; conditions: cells not expressing the recombinant β2-adrenergic receptor
Description: . Several days later, cells were analyzed by photomicroscopy to determine the effect of treatment on cell morphology. […]. Salbutamol induced both a change in cell shape (i.e., elongation of the cells) and an alignment of the cells with each other. […]. Assessment of the agonist or antagonist properties of individual compounds or libraries of compounds can be achieved by, for example, microscopic observation of the cells, or alternatively, by video digitizing techniques to quantify cell shape changes and/or cell alignment changes. […]

T1 sequence (P07550 whole entry): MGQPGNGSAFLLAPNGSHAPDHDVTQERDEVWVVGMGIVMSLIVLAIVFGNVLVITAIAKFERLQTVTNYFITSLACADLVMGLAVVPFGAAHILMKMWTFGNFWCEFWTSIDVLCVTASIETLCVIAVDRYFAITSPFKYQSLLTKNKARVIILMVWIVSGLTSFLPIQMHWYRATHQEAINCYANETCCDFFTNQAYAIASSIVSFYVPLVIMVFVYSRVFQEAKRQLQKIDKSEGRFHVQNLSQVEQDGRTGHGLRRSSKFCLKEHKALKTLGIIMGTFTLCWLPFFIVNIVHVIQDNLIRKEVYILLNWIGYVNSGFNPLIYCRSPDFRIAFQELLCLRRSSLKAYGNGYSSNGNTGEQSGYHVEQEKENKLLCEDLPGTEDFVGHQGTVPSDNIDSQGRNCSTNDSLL

`COc1ccc(OC)c(C(O)C(C)NC(C)(C)C)c1` (centres unmarked) [butoxamine] was tested, and the “cell morphology, antagonism of salbutamol effect” value ([1]; 10 nM butoxamine together with salbutamol) was “indistinguishable from control cells” and the “effect of treatment on cell morphology (cell shape and alignment)” value ([1]; compound alone (salbutamol 1 nM), photomicroscopy, Figure 4) was “no detectable change in cell shape or alignment”.

In the case of `C[N+](C)(C)CCOC(N)=O` [carbachol], the “viability of untransfected CHO cells (MTT)” value [2] is reported as “little effect”.

In the case of `CN1CCN(CC(=O)N2c3ccccc3C(=O)Nc3cccnc32)CC1` [pirenzepine], the “viability of untransfected CHO cells (MTT)” value [2] is reported as “little effect”.

With `CC(C)(C)NCC(O)c1ccc(O)c(CO)c1` (centres unmarked) [salbutamol] the “change in cell shape or alignment on untransfected CHO cells” value (untransfected CHO cells) was “no detectable change in cell shape or alignment”.
